Each compound was assayed on Rattus norvegicus (assay: Antiinflammatory activity in Wister albino rat assessed as inhibition of carrageenan-induced paw oedema at 50 mg/kg, ip administered 1 hr before carrageenan challenge measured after 3 hrs of induction of inflammation relative to control). Conditions: route intraperitoneal.
Format: functional
In the case of COc1ccc(/C=C2\CN(C)C[C@@]3(C2=O)[C@@H](c2ccccc2)CN(C)[C@@]32C(=O)Nc3ccccc32)cc1, the inhibition in vivo at 50 mg/kg is reported as 76.5%.

The compounds below were run on HOP-62 (assay: Antitumor activity against human HOP62 cells assessed as cell growth at 10 uM after 48 hrs by sulforhodamine B assay). Conditions: HOP-62, 48 h, read-out: Activity.
Format: functional
For COc1ccc(/C=C2\CN(C)C[C@@]3(C2=O)[C@@H](c2ccccc2)CN(C)[C@@]32C(=O)Nc3ccccc32)cc1, the growth at 10 µM was 69.9%.

The compounds below were run on BT-549 (assay: Antitumor activity against human BT549 cells assessed as cell growth at 10 uM after 48 hrs by sulforhodamine B assay). Conditions: BT-549, 48 h, read-out: Activity.
Format: functional
Work on COc1ccc(/C=C2\CN(C)C[C@@]3(C2=O)[C@@H](c2ccccc2)CN(C)[C@@]32C(=O)Nc3ccccc32)cc1 yielded a growth at 10 µM of 56.3%.

The compounds below were run on COLO 205 (assay: Antitumor activity against human COLO205 cells assessed as cell growth at 10 uM after 48 hrs by sulforhodamine B assay). Conditions: COLO 205, 48 h, read-out: Activity.
Format: functional
COc1ccc(/C=C2\CN(C)C[C@@]3(C2=O)[C@@H](c2ccccc2)CN(C)[C@@]32C(=O)Nc3ccccc32)cc1 was tested, and the growth at 10 µM was 67.4%.

Each compound was assayed on SK-MEL-2 (assay: Antitumor activity against human SK-MEL-2 cells assessed as cell growth at 10 uM after 48 hrs by sulforhodamine B assay). Conditions: SK-MEL-2, 48 h, read-out: Activity.
Format: functional
Work on COc1ccc(/C=C2\CN(C)C[C@@]3(C2=O)[C@@H](c2ccccc2)CN(C)[C@@]32C(=O)Nc3ccccc32)cc1 yielded a growth at 10 µM of 60.7%.

What follows are compounds tested on HCT-116 (assay: Antitumor activity against human HCT116 cells assessed as cell growth at 10 uM after 48 hrs by sulforhodamine B assay). Conditions: HCT-116, 48 h, read-out: Activity.
Format: functional
In the case of COc1ccc(/C=C2\CN(C)C[C@@]3(C2=O)[C@@H](c2ccccc2)CN(C)[C@@]32C(=O)Nc3ccccc32)cc1, the growth at 10 µM is reported as 26.8%.

These compounds were tested on HCC 2998 (assay: Antitumor activity against human HCC2998 cells assessed as cell growth at 10 uM after 48 hrs by sulforhodamine B assay). Conditions: HCC 2998, 48 h, read-out: Activity.
Format: functional
For COc1ccc(/C=C2\CN(C)C[C@@]3(C2=O)[C@@H](c2ccccc2)CN(C)[C@@]32C(=O)Nc3ccccc32)cc1, the growth at 10 µM was 65.5%.

Each compound was assayed on T47D (assay: Antitumor activity against human T47D cells assessed as cell growth at 10 uM after 48 hrs by sulforhodamine B assay). Conditions: read-out: Activity.
Format: functional
COc1ccc(/C=C2\CN(C)C[C@@]3(C2=O)[C@@H](c2ccccc2)CN(C)[C@@]32C(=O)Nc3ccccc32)cc1 gave a growth at 10 µM of 31.6%.

These compounds were tested on MDA-MB-231 (assay: Antitumor activity against human MDA-MB-231 cells assessed as cell growth at 10 uM after 48 hrs by sulforhodamine B assay). Conditions: MDA-MB-231, 48 h, read-out: Activity.
Format: functional
Work on COc1ccc(/C=C2\CN(C)C[C@@]3(C2=O)[C@@H](c2ccccc2)CN(C)[C@@]32C(=O)Nc3ccccc32)cc1 yielded a growth at 10 µM of 59.4%.

The compounds below were run on K562 (assay: Antitumor activity against human K562 cells assessed as cell growth at 10 uM after 48 hrs by sulforhodamine B assay). Conditions: K562, 48 h, read-out: Activity.
Format: functional
COc1ccc(/C=C2\CN(C)C[C@@]3(C2=O)[C@@H](c2ccccc2)CN(C)[C@@]32C(=O)Nc3ccccc32)cc1 gave a growth at 10 µM of 73.3%.

Each compound was assayed on MDA-MB-435 (assay: Antitumor activity against human MDA-MB-435 cells assessed as cell growth at 10 uM after 48 hrs by sulforhodamine B assay). Conditions: MDA-MB-435, 48 h, read-out: Activity.
Format: functional
For COc1ccc(/C=C2\CN(C)C[C@@]3(C2=O)[C@@H](c2ccccc2)CN(C)[C@@]32C(=O)Nc3ccccc32)cc1, the growth at 10 µM was 60.7%.

What follows are compounds tested on Rattus norvegicus (assay: Antiinflammatory activity in Wister albino rat assessed as inhibition of carrageenan-induced paw oedema at 50 mg/kg, ip administered 1 hr before carrageenan challenge measured after 24 hrs of induction of inflammation relative to control). Conditions: route intraperitoneal.
Format: functional
Work on COc1ccc(/C=C2\CN(C)C[C@@]3(C2=O)[C@@H](c2ccccc2)CN(C)[C@@]32C(=O)Nc3ccccc32)cc1 yielded an inhibition in vivo at 50 mg/kg of 52.9%.

These compounds were tested on MDA-MB-468 (assay: Antitumor activity against human MDA-MB-468 cells assessed as cell growth at 10 uM after 48 hrs by sulforhodamine B assay). Conditions: MDA-MB-468, 48 h, read-out: Activity.
Format: functional
COc1ccc(/C=C2\CN(C)C[C@@]3(C2=O)[C@@H](c2ccccc2)CN(C)[C@@]32C(=O)Nc3ccccc32)cc1 showed a growth at 10 µM of 58.9%.

These compounds were tested on HCT-15 (assay: Antitumor activity against human HCT15 cells assessed as cell growth at 10 uM after 48 hrs by sulforhodamine B assay). Conditions: HCT-15, 48 h, read-out: Activity.
Format: functional
COc1ccc(/C=C2\CN(C)C[C@@]3(C2=O)[C@@H](c2ccccc2)CN(C)[C@@]32C(=O)Nc3ccccc32)cc1 showed a growth at 10 µM of 50.8%.

What follows are compounds tested on NCI-H522 (assay: Antitumor activity against human NCI-H522 cells assessed as cell growth at 10 uM after 48 hrs by sulforhodamine B assay). Conditions: NCI-H522, 48 h, read-out: Activity.
Format: functional
For COc1ccc(/C=C2\CN(C)C[C@@]3(C2=O)[C@@H](c2ccccc2)CN(C)[C@@]32C(=O)Nc3ccccc32)cc1, the growth at 10 µM was 50.2%.

The compounds below were run on CCRF-CEM (assay: Antitumor activity against human CCRF-CEM cells assessed as cell growth at 10 uM after 48 hrs by sulforhodamine B assay). Conditions: read-out: Activity.
Format: functional
For COc1ccc(/C=C2\CN(C)C[C@@]3(C2=O)[C@@H](c2ccccc2)CN(C)[C@@]32C(=O)Nc3ccccc32)cc1, the growth at 10 µM was 45.4%.

Each compound was assayed on NCI-H322M (assay: Antitumor activity against human NCI-H322M cells assessed as cell growth at 10 uM after 48 hrs by sulforhodamine B assay). Conditions: read-out: Activity.
Format: functional
For COc1ccc(/C=C2\CN(C)C[C@@]3(C2=O)[C@@H](c2ccccc2)CN(C)[C@@]32C(=O)Nc3ccccc32)cc1, the growth at 10 µM was 79.7%.

These compounds were tested on ACHN (assay: Antitumor activity against human ACHN cells assessed as cell growth at 10 uM after 48 hrs by sulforhodamine B assay). Conditions: read-out: Activity.
Format: functional
With COc1ccc(/C=C2\CN(C)C[C@@]3(C2=O)[C@@H](c2ccccc2)CN(C)[C@@]32C(=O)Nc3ccccc32)cc1 the growth at 10 µM was 49.1%.

What follows are compounds tested on HT-29 (assay: Antitumor activity against human HT-29 cells assessed as cell growth at 10 uM after 48 hrs by sulforhodamine B assay). Conditions: HT-29, 48 h, read-out: Activity.
Format: functional
COc1ccc(/C=C2\CN(C)C[C@@]3(C2=O)[C@@H](c2ccccc2)CN(C)[C@@]32C(=O)Nc3ccccc32)cc1 showed a growth at 10 µM of 58.1%.

These compounds were tested on SR (assay: Antitumor activity against human SR cells assessed as cell growth at 10 uM after 48 hrs by sulforhodamine B assay). Conditions: read-out: Activity.
Format: functional
COc1ccc(/C=C2\CN(C)C[C@@]3(C2=O)[C@@H](c2ccccc2)CN(C)[C@@]32C(=O)Nc3ccccc32)cc1 was tested, and the growth at 10 µM was 52.3%.

What follows are compounds tested on EKVX (assay: Antitumor activity against human EKVX cells assessed as cell growth at 10 uM after 48 hrs by sulforhodamine B assay). Conditions: read-out: Activity.
Format: functional
Work on COc1ccc(/C=C2\CN(C)C[C@@]3(C2=O)[C@@H](c2ccccc2)CN(C)[C@@]32C(=O)Nc3ccccc32)cc1 yielded a growth at 10 µM of 64.2%.

What follows are compounds tested on Rattus norvegicus (assay: Antiinflammatory activity in Wister albino rat assessed as inhibition of carrageenan-induced paw oedema at 50 mg/kg, ip administered 1 hr before carrageenan challenge measured after 1 hr of induction of inflammation relative to control). Conditions: route intraperitoneal.
Format: functional
For COc1ccc(/C=C2\CN(C)C[C@@]3(C2=O)[C@@H](c2ccccc2)CN(C)[C@@]32C(=O)Nc3ccccc32)cc1, the inhibition in vivo at 50 mg/kg was 80.1%.

Each compound was assayed on CAKI-1 (assay: Antitumor activity against human Caki1 cells assessed as cell growth at 10 uM after 48 hrs by sulforhodamine B assay). Conditions: CAKI-1, 48 h, read-out: Activity.
Format: functional
In the case of COc1ccc(/C=C2\CN(C)C[C@@]3(C2=O)[C@@H](c2ccccc2)CN(C)[C@@]32C(=O)Nc3ccccc32)cc1, the growth at 10 µM is reported as 54.3%.

The compounds below were run on Rattus norvegicus (assay: Antiinflammatory activity in Wister albino rat assessed as inhibition of carrageenan-induced paw oedema at 50 mg/kg, ip administered 1 hr before carrageenan challenge measured after 2 hrs of induction of inflammation relative to control). Conditions: route intraperitoneal.
Format: functional
Work on COc1ccc(/C=C2\CN(C)C[C@@]3(C2=O)[C@@H](c2ccccc2)CN(C)[C@@]32C(=O)Nc3ccccc32)cc1 yielded an inhibition in vivo at 50 mg/kg of 76.4%.

The compounds below were run on OVCAR-3 (assay: Antitumor activity against human OVCAR-3 cells assessed as cell growth at 10 uM after 48 hrs by sulforhodamine B assay). Conditions: OVCAR-3, 48 h, read-out: Activity.
Format: functional
Compound COc1ccc(/C=C2\CN(C)C[C@@]3(C2=O)[C@@H](c2ccccc2)CN(C)[C@@]32C(=O)Nc3ccccc32)cc1 has a growth at 10 µM of 50.3%.

The compounds below were run on IGROV-1 (assay: Antitumor activity against human IGROV1 cells assessed as cell growth at 10 uM after 48 hrs by sulforhodamine B assay). Conditions: IGROV-1, 48 h, read-out: Activity.
Format: functional
COc1ccc(/C=C2\CN(C)C[C@@]3(C2=O)[C@@H](c2ccccc2)CN(C)[C@@]32C(=O)Nc3ccccc32)cc1 showed a growth at 10 µM of 79.4%.

These compounds were tested on Malme-3M (assay: Antitumor activity against human MALME-3M cells assessed as cell growth at 10 uM after 48 hrs by sulforhodamine B assay). Conditions: read-out: Activity.
Format: functional
For COc1ccc(/C=C2\CN(C)C[C@@]3(C2=O)[C@@H](c2ccccc2)CN(C)[C@@]32C(=O)Nc3ccccc32)cc1, the growth at 10 µM was 58.7%.

The compounds below were run on DU-145 (assay: Antitumor activity against human DU145 cells assessed as cell growth at 10 uM after 48 hrs by sulforhodamine B assay). Conditions: DU-145, 48 h, read-out: Activity.
Format: functional
Compound COc1ccc(/C=C2\CN(C)C[C@@]3(C2=O)[C@@H](c2ccccc2)CN(C)[C@@]32C(=O)Nc3ccccc32)cc1 has a growth at 10 µM of 70.3%.
